Measurements taken from patent US20090215906A1 (priority 2005, published 2009).
Where two headings read alike, the source gives them in different places.

Legend:
[1] = system: Male Baboons; details: in vivo, 1.5 mg/kg
Source text: (§1) The samples analyzed were sera taken on the day of first treatment before being given test article (day 0), after 12 days of treatment (day 12) and 7 days after the last treatment (end or washout).

[2] = system: Male Baboons; experiment: Effects of Clomids on serum cholesterol in male baboons; type: in vivo, Baboon; details: 1.5 mg/kg for 12 days
Source text: as §1

[3] = system: Male Baboons; experiment: Effects of Clomids on serum testosterone and prolactin in male baboons; type: in vivo, Baboon; details: 1.5 mg/kg for 12 days, in words
Source text: There were no changes in serum LH or FSH. […] There was also no change in body weight during the 12 day study.

[4] = system: men; details: cited from earlier work
[5] = system: hypogonadal men
Experimental: (§2) Half of the men in each of the Androxal™ and placebo arms were randomized into cohorts that underwent in-clinic sessions on days 1 and 14 to determine pharmacokinetic parameters for Androxal™ as well as cyclical changes in testosterone. The placebo and Androxal™ doses were administered in a double blind fashion. The Androgel® cream was administered in an open label fashion. Half of the Androgel® patients underwent in-clinic sessions similar to the other patients in the study. Following the two week drug exposure patients were followed for an additional seven to ten days to determine the status of their testosterone levels.

[6] = system: Male Baboons; experiment: Effects of Clomids on clinical chemistry and hematology parameters in male baboons
Source text: as §1

[7] = system: hypogonadal men; remark: listed apart in the source
Experimental: as §2

[8] = men, after 2 months, Guay et al. 1995

| Structure (SMILES) | effects on hematocrit [1] | effects on the red blood cell population [1] | serum cholesterol levels (in words) [2] | effect on total serum testosterone [3] | LH, FSH, and testosterone [4, 8] | erectile dysfunction [4, 8] | semen quality or fertility ([4]; men, after 6 months of treatment, WHO study) | free and total testosterone ([4]; men, Tenover et al. 1987) | FSH, LH ([4]; young and old men after treatment, Tenover et al. 1987) | changes in testosterone from baseline testosterone levels (in words) ([5]; all doses) | serum levels of LH ([5]; during treatment) | counts of eosinophiles ([6]; 1.5 mg/kg for 12 days) | effects on the red blood cell population ([6]; 1.5 mg/kg for 12 days) | lymphocyte count ([6]; 1.5 mg/kg for 12 days) | serum creatinine values ([6]; between day 0 and Day 12) | per cent of granulocytes in the blood ([6]; very strong after the 7-day washout) | reduction in triglycerides ([7]; average, non-dose dependent, after two weeks of therapy) | side effects different than placebo ([7]; two week exposure) |
| --- | --- | --- | --- | --- | --- | --- | --- | --- | --- | --- | --- | --- | --- | --- | --- | --- | --- | --- |
| CCN(CC)CCOc1ccc(/C(=C(/Cl)c2ccccc2)c2ccccc2)cc1 [Zuclomid, cis-clomiphene] | substantive effects | substantive effects | – | – | – | – | – | – | – | – | – | – | – | – | – | – | – | – |
| CCN(CC)CCOc1ccc(C(=C(Cl)c2ccccc2)c2ccccc2)cc1 [Clomid, clomiphene] | – | – | slight increase | more variable total testosterone levels | increase | no effects | no changes | increases | increased | – | – | – | – | – | – | – | – | – |
| CCN(CC)CCOc1ccc(/C(=C(\Cl)c2ccccc2)c2ccccc2)cc1 [Enclomid, trans-clomiphene] | – | – | – | significant increases | – | – | – | – | – | statistically significant changes | statistically increase | raising | substantive effects | increase | no differences | lowering | 19.1% | no side effects |
